This note sets out measurements from US11633459B2, “GIP derivatives and uses thereof” (priority 2018, dated 2023).

pEC50: −log10 of the molar value. *1 amine or outer side, *2 acyl side, *3 side chain or, on linkers, in order; H or OH if unused. Where a SMILES comes first, the peptide text is derived from it. Where no end group is shown, it is not given here. Side-chain parts run from the residue outwards. [ ]: non-standard residue; d: D form. The star is where a group is joined. X1 = O=C(O)CCCCCCCCCCCCCCCCCCC(=O)NCC1CCC(C(=O)*)CC1; C18 diacid = O=C(O)CCCCCCCCCCCCCCCCC(=O)*; γGlu = O=C(O)[C@H](CCC(=O)[*:2])N[*:1]; Nle = CCCC[C@H](N)C(=O)O; AEEA = NCCOCCOCC(=O)O; Aib = CC(C)(N)C(=O)O

One data set deals with T1, human GIP receptor (Homo sapiens, UniProt P48546).
T1 construct: expressed in transfected cells; host or cells: BHK cells (parent line BHKTS13), clone BHK CRE luc2P hGIPR clone #5
T1 sequence (P48546 22-466): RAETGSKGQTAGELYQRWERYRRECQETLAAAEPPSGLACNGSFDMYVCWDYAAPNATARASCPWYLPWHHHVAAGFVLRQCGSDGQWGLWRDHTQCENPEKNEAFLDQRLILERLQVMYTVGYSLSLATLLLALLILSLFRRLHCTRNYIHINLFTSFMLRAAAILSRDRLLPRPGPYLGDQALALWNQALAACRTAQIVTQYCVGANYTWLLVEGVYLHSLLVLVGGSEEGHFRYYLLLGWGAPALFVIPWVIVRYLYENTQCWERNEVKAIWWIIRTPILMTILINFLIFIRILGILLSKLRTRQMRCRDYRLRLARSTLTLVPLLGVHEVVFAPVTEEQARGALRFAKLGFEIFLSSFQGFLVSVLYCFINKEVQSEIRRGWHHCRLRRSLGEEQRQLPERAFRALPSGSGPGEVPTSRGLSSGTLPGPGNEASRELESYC
In words: In vitro potency, CRE luciferase reporter gene assay, whole BHK cells expressing human GIP receptor. Format: cell-based. The note with it: 0.2% HSA. The procedure:
(§1) In Vitro Potency (CRE Luciferase; Whole Cells)
(§2) The in vitro potency is the measure of human GIP, GLP-1 or glucagon receptor activation, respectively, in a whole cell assay.
(§3) In vitro potency was determined by measuring the response of the human GIP, GLP-1 or glucagon receptor in a reporter gene assay in individual cell lines. […] When the respective receptor is activated it results in the production of cAMP, which in turn results in the luciferase protein being expressed. When assay incubation is completed the luciferase substrate (luciferin) is added and the enzyme converts luciferin to oxyluciferin to produce bioluminescence. The luminescence is measured as the readout for the assay.
(§4) The cells were derived from a clone containing the CRE luciferase element and were established by further transfection with the respective receptor to obtain the current clone.
(§5) The cells were cultured at 5% CO2 in Cell Culture Medium. They were aliquoted and stored in liquid nitrogen. The cells were kept in passage and were seeded out the day before each assay.
(§6) The Assay Buffer consisted of 1% ovalbumin and 0.1% Pluronic F-68 in Assay Medium with the addition of human serum albumin at twice the indicated concentrations.
(§7) 1) Cells were plated at 5000 cells/well and incubated overnight.
(§8) 2) Cells were washed three times in PBS.
(§9) 3) Assay Medium (50 μl aliquot) with or without serum albumin was added to each well in the assay plate.
(§10) 4) Stocks of the test compounds and reference compounds were diluted to a concentration of 0.2 μM in Assay Buffer. […] 8) The cells were washed three times with PBS plus some liquid in each well. 9) A 100 μl aliquot of steadylite plus reagent was added to each well of the assay plate (reagent was light sensitive). 10) Each assay plate was covered with aluminum foil to protect it from light and shaken for 30 min at room temperature. 11) Each assay plate was read in a microtiter plate reader. Calculations and Results
The data from the microtiter plate reader was transferred to GraphPad Prism software. The software performs a non-linear regression (log(agonist) vs response).
A minimum of two replicates was measured for each sample. The reported values are averages of the replicates.

Data set [1] is described as follows: Pharmacokinetic study in minipigs, terminal half-life after i.v. administration. Conditions: female, Göttingen, minipig, plasma, iv, 5 nmol/kg.
Protocol: Pharmacokinetic Study in Minipigs
The purpose of this study is to determine the half-life in vivo of the derivatives of the present invention after i.v. administration to minipigs, i.e. the prolongation of their time in the body and thereby their time of action. This is done in a pharmacokinetic (PK) study, where the terminal half-life of the derivative in question is determined. By terminal half-life is generally meant the period of time it takes to halve a certain plasma concentration, measured after the initial distribution phase.
Female Göttingen minipigs were obtained from Ellegaard Göttingen Minipigs (Dalmose, Denmark) approximately 7-14 months of age and weighing from approximately 16-35 kg were used in the studies. The minipigs were housed individually and fed restrictedly once daily with SDS minipig diet (Special Diets Services, Essex, UK).
After at 3 weeks of acclimatisation two permanent central venous catheters were implanted in vena cava caudalis in each animal. The animals were allowed 1 week recovery after the surgery, and were then used for repeated pharmacokinetic studies with a suitable wash-out period between successive derivative dosing.
Blood samples (for example 0.8 ml) were collected in EDTA buffer (8 mM) and then centrifuged at 4° C. and 1942G for 10 minutes.
Individual plasma concentration-time profiles were analysed by a non-compartmental model in Phoenix WinNonLin ver. […] (Pharsight Inc., Mountain View, Calif., USA), and the resulting terminal half-lives (harmonic mean) determined.
A further data set concerns the target T2, human GLP-1 receptor (Homo sapiens, UniProt P43220).
T2 construct: expressed in transfected cells; host or cells: BHK cells (parent line BHKTS13), clone BHK CRE luc2P hGLP-1R clone #6
Put plainly: In vitro potency, CRE luciferase reporter gene assay, whole BHK cells expressing human GLP-1 receptor. It is filed as cell-based. The note with it: 0.2% HSA. The procedure:
as §1, §2, §3, §4, §5, §6, §7, §8, §9, §10
(§11) The data from the microtiter plate reader was transferred to GraphPad Prism software. […]
(§12) A minimum of two replicates was measured for each sample. […]

The next data set deals with T3, human glucagon receptor (Homo sapiens, UniProt P47871).
T3 construct: expressed in transfected cells; host or cells: BHK cells (parent line BHKTS13), clone BHK CRE luc2P hGCGR clone #18
T3 sequence (P47871 26-477): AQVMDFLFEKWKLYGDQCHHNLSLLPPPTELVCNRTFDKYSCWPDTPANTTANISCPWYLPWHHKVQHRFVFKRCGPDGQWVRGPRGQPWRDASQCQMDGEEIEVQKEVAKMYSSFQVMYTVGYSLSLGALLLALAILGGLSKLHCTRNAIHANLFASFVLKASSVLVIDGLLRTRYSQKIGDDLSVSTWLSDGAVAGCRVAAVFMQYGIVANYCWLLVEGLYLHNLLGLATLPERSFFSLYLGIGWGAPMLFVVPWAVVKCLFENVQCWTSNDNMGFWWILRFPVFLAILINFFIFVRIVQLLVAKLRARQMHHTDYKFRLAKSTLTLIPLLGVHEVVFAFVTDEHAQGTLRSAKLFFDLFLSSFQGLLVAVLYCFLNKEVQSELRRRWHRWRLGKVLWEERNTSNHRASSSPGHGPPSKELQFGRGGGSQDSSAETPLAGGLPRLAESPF
Put plainly: In vitro potency, CRE luciferase reporter gene assay, whole BHK cells expressing human glucagon receptor. It is filed as cell-based. Conditions: 0.2% HSA. The procedure: as §1, §2, §3, §4, §5, §6, §7, §8, §9, §10, §11, §12

T2 sequence (P43220 24-463): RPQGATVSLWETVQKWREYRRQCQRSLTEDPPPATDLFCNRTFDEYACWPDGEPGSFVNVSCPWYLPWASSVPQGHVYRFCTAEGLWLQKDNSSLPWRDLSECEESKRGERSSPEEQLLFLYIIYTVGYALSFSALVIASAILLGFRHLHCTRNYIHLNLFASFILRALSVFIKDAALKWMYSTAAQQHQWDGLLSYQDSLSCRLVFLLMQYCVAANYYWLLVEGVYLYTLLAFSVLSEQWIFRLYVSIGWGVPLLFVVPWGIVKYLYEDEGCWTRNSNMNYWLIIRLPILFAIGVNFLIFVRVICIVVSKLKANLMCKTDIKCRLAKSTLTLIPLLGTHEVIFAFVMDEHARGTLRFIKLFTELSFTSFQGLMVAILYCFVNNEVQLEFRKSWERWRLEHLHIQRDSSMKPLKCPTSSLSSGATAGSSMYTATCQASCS

Turning to `CCCC[C@H](NC(=O)[C@H](C)NC(=O)[C@@H](NC(=O)[C@H](CO)NC(=O)[C@H](Cc1ccc(O)cc1)NC(=O)[C@H](CC(=O)O)NC(=O)[C@H](CO)NC(=O)[C@@H](NC(=O)[C@H](Cc1ccccc1)NC(=O)[C@@H](NC(=O)CNC(=O)[C@H](CCC(=O)O)NC(=O)C(C)(C)NC(=O)[C@@H](N)Cc1ccc(O)cc1)[C@@H](C)O)[C@@H](C)CC)[C@@H](C)CC)C(=O)N[C@@H](CC(=O)O)C(=O)N[C@@H](CCCCN)C(=O)N[C@H](C(=O)N[C@@H](CCCNC(=N)N)C(=O)N[C@@H](CCC(N)=O)C(=O)N[C@@H](CCC(N)=O)C(=O)N[C@@H](CC(=O)O)C(=O)N[C@@H](Cc1ccccc1)C(=O)N[C@H](C(=O)N[C@@H](CCCCNC(=O)COCCOCCNC(=O)COCCOCCNC(=O)CC[C@H](NC(=O)C1CCC(CNC(=O)CCCCCCCCCCCCCCCCCCC(=O)O)CC1)C(=O)O)C(=O)N[C@@H](Cc1c[nH]c2ccccc12)C(=O)N[C@@H](CC(C)C)C(=O)N[C@@H](CC(C)C)C(=O)N[C@@H](C)C(=O)N[C@@H](CCC(N)=O)C(=O)N[C@@H](CCCCN)C(=O)NCC(=O)O)C(C)C)[C@@H](C)CC` (stereo partly drawn) [Compound 3, N{Epsilon-24}-[2-[2-[2-[[2-[2-[2-[[(4S)-4-carboxy-4-[[4-[(19-carboxynonadecanoylamino)methyl]cyclohexanecarbonyl]amino]butanoyl]amino]ethoxy]ethoxy]acetyl]amino]ethoxy]ethoxy]acetyl]-[Aib2,Nle14,Arg18,Lys24]-hGIP(1-31)], the negative logarithm of the EC50 (pEC50) at human GIP receptor was 10.35. In addition, the half-life in data set [1] was 96 h.

At human GIP receptor, `CCCC[C@H](NC(=O)[C@H](C)NC(=O)[C@@H](NC(=O)[C@H](CO)NC(=O)[C@H](Cc1ccc(O)cc1)NC(=O)[C@H](CC(=O)O)NC(=O)[C@H](CO)NC(=O)[C@@H](NC(=O)[C@H](Cc1ccccc1)NC(=O)[C@@H](NC(=O)CNC(=O)[C@H](CCC(=O)O)NC(=O)C(C)(C)NC(=O)[C@@H](N)Cc1ccc(O)cc1)[C@@H](C)O)[C@@H](C)CC)[C@@H](C)CC)C(=O)N[C@@H](CC(=O)O)C(=O)N[C@@H](CCCCN)C(=O)N[C@H](C(=O)N[C@@H](CCCNC(=N)N)C(=O)N[C@@H](CCC(N)=O)C(=O)N[C@@H](CCC(N)=O)C(=O)N[C@@H](CC(=O)O)C(=O)N[C@@H](Cc1ccccc1)C(=O)N[C@H](C(=O)N[C@@H](CCCCNC(=O)CC[C@H](NC(=O)CC[C@H](NC(=O)CC[C@H](NC(=O)C1CCC(CNC(=O)CCCCCCCCCCCCCCCCCCC(=O)O)CC1)C(=O)O)C(=O)O)C(=O)O)C(=O)N[C@@H](Cc1c[nH]c2ccccc12)C(=O)N[C@@H](CC(C)C)C(=O)N[C@@H](CC(C)C)C(=O)N[C@@H](C)C(=O)N[C@@H](CCC(N)=O)C(=O)N[C@@H](CCCCN)C(=O)NCC(=O)O)C(C)C)[C@@H](C)CC` (stereo partly drawn) [Compound 4, N{Epsilon-24}-[(4S)-4-carboxy-4-[[(4S)-4-carboxy-4-[[(4S)-4-carboxy-4-[[4-[(19-carboxynonadecanoylamino)methyl]cyclohexanecarbonyl]amino]butanoyl]amino]butanoyl]amino]butanoyl]-[Aib2,Nle14,Arg18,Lys24]-hGIP(1-31)] had a pEC50 of 10.14. Further, in data set [1], the half-life is 124 h.

Take `CCCC[C@H](NC(=O)[C@H](C)NC(=O)[C@@H](NC(=O)[C@H](CO)NC(=O)[C@H](Cc1ccc(O)cc1)NC(=O)[C@H](CC(=O)O)NC(=O)[C@H](CO)NC(=O)[C@@H](NC(=O)[C@H](Cc1ccccc1)NC(=O)[C@@H](NC(=O)CNC(=O)[C@H](CCC(=O)O)NC(=O)C(C)(C)NC(=O)[C@@H](N)Cc1ccc(O)cc1)[C@@H](C)O)[C@@H](C)CC)[C@@H](C)CC)C(=O)N[C@@H](CC(=O)O)C(=O)N[C@@H](CCCCN)C(=O)N[C@H](C(=O)N[C@@H](CCCNC(=N)N)C(=O)N[C@@H](CCC(N)=O)C(=O)NC(C)(C)C(=O)N[C@@H](CC(=O)O)C(=O)N[C@@H](Cc1ccccc1)C(=O)N[C@H](C(=O)N[C@@H](CCCCNC(=O)CC[C@H](NC(=O)CC[C@H](NC(=O)CC[C@H](NC(=O)C1CCC(CNC(=O)CCCCCCCCCCCCCCCCCCC(=O)O)CC1)C(=O)O)C(=O)O)C(=O)O)C(=O)N[C@@H](Cc1c[nH]c2ccccc12)C(=O)N[C@@H](CC(C)C)C(=O)N[C@@H](CC(C)C)C(=O)N[C@@H](C)C(=O)N[C@@H](CCC(N)=O)C(=O)N[C@@H](CCCCN)C(=O)NCC(=O)O)C(C)C)[C@@H](C)CC` (stereo partly drawn) [Compound 12, N{Epsilon-24}-[(4S)-4-carboxy-4-[[(4S)-4-carboxy-4-[[(4S)-4-carboxy-4-[[4-[(19-carboxynonadecanoylamino)methyl]cyclohexanecarbonyl]amino]butanoyl]amino]-butanoyl]amino]butanoyl]-[Aib2,Nle14,Arg18,Aib20,Lys24]-hGIP(1-31)] (H-Y[Aib]EGTFISDYSIA[Nle]DKIRQ[Aib]DFVK([γGlu-γGlu-γGlu-X1])WLLAQKG-OH): the negative-log EC50 (pEC50) at human GIP receptor was 10.15. In addition, the half-life in data set [1] is 132 h.

On to “H-Y[Aib]EGTFISDYSIA[Nle]DKIHQQDFVK([γGlu-γGlu-γGlu-C18 diacid])WLLAQKGKEDDWKHNITQ [Compound 39, N{Epsilon-24}-[(4S)-4-carboxy-4-[[(4S)-4-carboxy-4-[[(4S)-4-carboxy-4-(17-carboxyheptadecanoylamino)butanoyl]amino]butanoyl]amino]butanoyl]-[Aib2,Nle14,Lys24,Glu33,Asp34]-hGIP]”, for which the figures for the pEC50 at human GIP receptor, at human GLP-1 receptor and on human glucagon receptor were 11.23, less than 7.00 and less than 7.00, respectively.

“H-Y[Aib]EGTFISDYSIA[Nle]DKIHQQDFVK([γGlu-γGlu-γGlu-C18 diacid])WLLAQKGKEEDWKHNITQ [Compound 38, N{Epsilon-24}-[(4S)-4-carboxy-4-[[(4S)-4-carboxy-4-[[(4S)-4-carboxy-4-(17-carboxyheptadecanoylamino)butanoyl]amino]butanoyl]amino]butanoyl]-[Aib2,Nle14,Lys24,Glu33,Glu34]-hGIP]”: the pEC50 was 11.05 on human GIP receptor, less than 7.00 on human GLP-1 receptor and less than 7.00 at human glucagon receptor.

In the case of “Y[Aib]EGTFISDYSIA[Nle]DKIHQQDFVK([AEEA-AEEA-γGlu-C18 diacid])WLLAQKGKEDDWKHNITQ [Compound 36, N{Epsilon-24}-[2-[2-[2-[[2-[2-[2-[[(4S)-4-carboxy-4-(17-carboxyheptadecanoylamino)butanoyl]amino]ethoxy]ethoxy]acetyl]amino]ethoxy]ethoxy]acetyl]-[Aib2,Nle14,Lys24,Glu33,Asp34]-hGIP]”, the figures for the pEC50 on human GIP receptor, at human GLP-1 receptor and on human glucagon receptor were 11.22, less than 7.00 and less than 7.00, respectively.
